Test results: paper PMC10257182, “Discovery of senolytics using machine learning” (Nature Communications, 2023)
Read-outs that look alike come from different tables or passages of the source.

Tests used:
Type in all cases: cell-based, human
[1] = system: non-senescent control IMR90 ER:RAS cells; assay: Nuclei count (Hoechst, high content imaging) senolytic assay, OIS model, non-senescent control cells; conditions: Homo sapiens
How it was run: (§1)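 IMR90 ER:RAS (p14), ±4-OHT 100 nM; cpd 10 nM–10 μM, 10-pt […], 72 h, n=3. Fix formaldehyde, Triton X-100, Hoechst 2 μg/ml final. Readout: imaged nuclei count vs untreated; ouabain positive control.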

[2] = system: senescent A549 cells (etoposide-induced); assay: Nuclei count senolytic assay, therapy-induced senescence (TIS) model, senescent cells; conditions: Homo sapiens, A549, Senescent cells, mean, read-out: Mean % Cell Survival
How it was run: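 Etoposide 100 μM, 48 h, + 3 d standard media → senescent A549; untreated A549 = controls. 24 h post-seeding, cpds 10 nM–10 μM final, 10-pt […], 72 h, n=3. Fix formaldehyde, permeabilise Triton-X100, Hoechst 2 μg/ml, image, count nuclei.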

[3] = system: senescent IMR90 ER:RAS cells (4-OHT-induced); assay: Nuclei count (Hoechst, high content imaging) senolytic assay, oncogene-induced senescence (OIS) model, senescent cells; conditions: Homo sapiens
How it was run: as §1

Question: Which results are given for Cc1cnc(C(=O)N[C@H]2CCCCC/C=C\[C@@H]3C[C@@]3(C(=O)NS(=O)(=O)C3CC3)NC(=O)[C@@H]3C[C@@H](Oc4nc5ccccc5c5ccccc45)CN3C2=O)cn1 [Paritaprevir, paritaprevir, reference compound]?
Answer: viability at 10 µM ([1]; IMR-90, 72 h, Control, log (dose) [M] -5, 72 h, mean n=3 (Fig 3C), read-out: Mean % Cell Survival): 95%; viability at 4.677 µM ([1]; IMR-90, 72 h, Control, log (dose) [M] -5.33, 72 h, mean n=3 (Fig 3C), read-out: Mean % Cell Survival): 90.1%; viability at 2.188 µM ([1]; IMR-90, 72 h, Control, log (dose) [M] -5.66, 72 h, mean n=3 (Fig 3C), read-out: Mean % Cell Survival): 102%; viability at 1 µM ([1]; IMR-90, 72 h, Control, log (dose) [M] -6, 72 h, mean n=3 (Fig 3C), read-out: Mean % Cell Survival): 78.8%; viability at 0.4677 µM ([1]; IMR-90, 72 h, Control, log (dose) [M] -6.33, 72 h, mean n=3 (Fig 3C), read-out: Mean % Cell Survival): 87.9%; viability at 0.2188 µM ([1]; IMR-90, 72 h, Control, log (dose) [M] -6.66, 72 h, mean n=3 (Fig 3C), read-out: Mean % Cell Survival): 82.7%; viability at 0.1 µM ([1]; IMR-90, 72 h, Control, log (dose) [M] -7, 72 h, mean n=3 (Fig 3C), read-out: Mean % Cell Survival): 81.5%; viability at 0.04677 µM ([1]; IMR-90, 72 h, Control, log (dose) [M] -7.33, 72 h, mean n=3 (Fig 3C), read-out: Mean % Cell Survival): 87.1%; viability at 0.02188 µM ([1]; IMR-90, 72 h, Control, log (dose) [M] -7.66, 72 h, mean n=3 (Fig 3C), read-out: Mean % Cell Survival): 88.3%; viability at 0.01 µM ([1]; IMR-90, 72 h, Control, log (dose) [M] -8, 72 h, mean n=3 (Fig 3C), read-out: Mean % Cell Survival): 101%; viability at 10 µM ([1]; IMR-90, Control cells, log (dose) [M] -5, individual replicates, SUP FIG 4C, read-out: % Cell Survival): 93.1%; viability at 4.677 µM ([1]; IMR-90, Control cells, log (dose) [M] -5.33, individual replicates, SUP FIG 4C, read-out: % Cell Survival): 86.6%; viability at 0.4677 µM ([1]; IMR-90, Control cells, log (dose) [M] -6.33, individual replicates, SUP FIG 4C, read-out: % Cell Survival): 89.5%; viability at 0.2188 µM ([1]; IMR-90, Control cells, log (dose) [M] -6.66, individual replicates, SUP FIG 4C, read-out: % Cell Survival): 83.1%; viability at 0.1 µM ([1]; IMR-90, Control cells, log (dose) [M] -7, individual replicates, SUP FIG 4C, read-out: % Cell Survival): 73.5%; viability at 0.04677 µM ([1]; IMR-90, Control cells, log (dose) [M] -7.33, individual replicates, SUP FIG 4C, read-out: % Cell Survival): 83%; viability at 0.02188 µM ([1]; IMR-90, Control cells, log (dose) [M] -7.66, individual replicates, SUP FIG 4C, read-out: % Cell Survival): 88%; viability at 0.01 µM ([1]; IMR-90, Control cells, log (dose) [M] -8, individual replicates, SUP FIG 4C, read-out: % Cell Survival): 102%; viability at 10 µM ([1]; IMR-90, Control, log (dose) [M] -5, read-out: % Cell Survival): 96%; viability at 4.68 µM ([1]; IMR-90, Control, log (dose) [M] -5.33, read-out: % Cell Survival): 96.2%; viability at 2.19 µM ([1]; IMR-90, Control, log (dose) [M] -5.66, read-out: % Cell Survival): 99.1%; viability at 1 µM ([1]; IMR-90, Control, log (dose) [M] -6, read-out: % Cell Survival): 96.6%; viability at 0.468 µM ([1]; IMR-90, Control, log (dose) [M] -6.33, read-out: % Cell Survival): 97.8%; viability at 0.219 µM ([1]; IMR-90, Control, log (dose) [M] -6.66, read-out: % Cell Survival): 99.6%; viability at 0.1 µM ([1]; IMR-90, Control, log (dose) [M] -7, read-out: % Cell Survival): 94.1%; viability at 0.04677 µM ([1]; IMR-90, Control, log (dose) [M] -7.33, read-out: % Cell Survival): 94.2%; viability at 0.0219 µM ([1]; IMR-90, Control, log (dose) [M] -7.66, read-out: % Cell Survival): 97%; viability at 0.01 µM ([1]; IMR-90, Control, log (dose) [M] -8, read-out: % Cell Survival): 101%; viability at 10 µM ([2]; log (dose) [M] -5): 113%; viability at 4.68 µM ([2]; log (dose) [M] -5.33): 107%; viability at 2.19 µM ([2]; log (dose) [M] -5.66): 112%; viability at 1 µM ([2]; log (dose) [M] -6): 108%; viability at 0.468 µM ([2]; log (dose) [M] -6.33): 112%; viability at 0.219 µM ([2]; log (dose) [M] -6.66): 104%; viability at 0.1 µM ([2]; log (dose) [M] -7): 112%; viability at 0.0468 µM ([2]; log (dose) [M] -7.33): 115%; viability at 0.0219 µM ([2]; log (dose) [M] -7.66): 103%; viability at 0.01 µM ([2]; log (dose) [M] -8): 103%; viability at 10 µM ([3]; IMR-90, 72 h, Senescent, log (dose) [M] -5, 72 h, mean n=3 (Fig 3C), read-out: Mean % Cell Survival): 69.5%; viability at 4.677 µM ([3]; IMR-90, 72 h, Senescent, log (dose) [M] -5.33, 72 h, mean n=3 (Fig 3C), read-out: Mean % Cell Survival): 86.5%; viability at 2.188 µM ([3]; IMR-90, 72 h, Senescent, log (dose) [M] -5.66, 72 h, mean n=3 (Fig 3C), read-out: Mean % Cell Survival): 70.9%; viability at 1 µM ([3]; IMR-90, 72 h, Senescent, log (dose) [M] -6, 72 h, mean n=3 (Fig 3C), read-out: Mean % Cell Survival): 67.9%; viability at 0.4677 µM ([3]; IMR-90, 72 h, Senescent, log (dose) [M] -6.33, 72 h, mean n=3 (Fig 3C), read-out: Mean % Cell Survival): 78.9%; viability at 0.2188 µM ([3]; IMR-90, 72 h, Senescent, log (dose) [M] -6.66, 72 h, mean n=3 (Fig 3C), read-out: Mean % Cell Survival): 76.2%; viability at 0.1 µM ([3]; IMR-90, 72 h, Senescent, log (dose) [M] -7, 72 h, mean n=3 (Fig 3C), read-out: Mean % Cell Survival): 79.8%; viability at 0.04677 µM ([3]; IMR-90, 72 h, Senescent, log (dose) [M] -7.33, 72 h, mean n=3 (Fig 3C), read-out: Mean % Cell Survival): 84.7%; viability at 0.02188 µM ([3]; IMR-90, 72 h, Senescent, log (dose) [M] -7.66, 72 h, mean n=3 (Fig 3C), read-out: Mean % Cell Survival): 86.9%; viability at 0.01 µM ([3]; IMR-90, 72 h, Senescent, log (dose) [M] -8, 72 h, mean n=3 (Fig 3C), read-out: Mean % Cell Survival): 70.3%; viability at 4.677 µM ([3]; IMR-90, Senescent cells, log (dose) [M] -5.33, individual replicates, SUP FIG 4C, read-out: % Cell Survival): 87.6%; viability at 0.1 µM ([3]; IMR-90, Senescent cells, log (dose) [M] -7, individual replicates, SUP FIG 4C, read-out: % Cell Survival): 75%; viability at 10 µM ([3]; IMR-90, Senescent, log (dose) [M] -5, read-out: % Cell Survival): 115%; viability at 4.677 µM ([3]; IMR-90, Senescent, log (dose) [M] -5.33, read-out: % Cell Survival): 110%; viability at 2.188 µM ([3]; IMR-90, Senescent, log (dose) [M] -5.66, read-out: % Cell Survival): 113%; viability at 1 µM ([3]; IMR-90, Senescent, log (dose) [M] -6, read-out: % Cell Survival): 105%; viability at 0.4677 µM ([3]; IMR-90, Senescent, log (dose) [M] -6.33, read-out: % Cell Survival): 111%; viability at 0.1 µM ([3]; IMR-90, Senescent, log (dose) [M] -7, read-out: % Cell Survival): 112%; viability at 0.04677 µM ([3]; IMR-90, Senescent, log (dose) [M] -7.33, read-out: % Cell Survival): 118%; viability at 0.01 µM ([3]; IMR-90, Senescent, log (dose) [M] -8, read-out: % Cell Survival): 107%
